Measurements published in patent US12661353B2, “SPT5 inhibitors and uses thereof” (Yeda Research and Development Co. Ltd., priority 2020, dated 2026).

Key:
mutant (Q111) Htt = experiment: Newly synthesized Htt transcripts, 4sU metabolic labeling, Q111 cells; type: cell-based, mouse; conditions: 4sU for 2 hours
Method: Metabolic labeling of newly synthesized RNA with 4-thiouridine (4sU)—STHdh Q111 and STHdh Q7 cells (collected from 10 cm dishes) were treated for 30 minutes with DMSO (vehicle control) or the tested SPI compound (e.g., SPJ-21). Following, 4-thiouridine (4sU, 150 μM final concentration) was added for additional 2 hours. The labeling was terminated by removing the 4sU-containing medium and washing the cells 3 times with phosphate-buffered saline (PBS). Total RNA was extracted as described above. […]
Huntington's disease (HD) is an inherited genetic disorder caused by expansion trinucleotide CAG repeats (36 and higher) encoding glutamine (Q) in the huntingtin (Htt) gene. […] The two cell lines were treated for 48 hours with the identified SPIs and following the levels of Htt mRNA were determined. […] Moreover, the levels measured from the second exon relative to the first were fairly higher in Q7 compared to Q111 and this small difference was kept all along the gene. […]
In assays conducted for showing that the selective effect on mutant Htt is at the transcription level, the cells were metabolically labeled with 4-thio-uridine (4sU) for 2 hours in the presence of DMSO of the indicated SPI analogs. […] Newly synthesized Htt transcript levels were determined by RT-qPCR.

HSPA6 and HSPA1A = experiment: mRNA of heat shock genes HSPA6 and HSPA1A, HeLa, RT-qPCR; type: cell-based, human
Method: (§1) RNA analysis—Total RNA was extracted using Tri-reagent (Bio-Lab Chemicals) and Direct-Zol™ RNA MiniPrep kit (Zymo Research). Following, cDNA was synthesized from […] of total RNA using a High-Capacity cDNA Reverse Transcription Kit (ABI, Thermo Fisher Scientific). cDNA samples were analyzed by quantitative PCR (qPCR) in a ViiA 7 Real-Time PCR System using Fast qPCRBIO SYBR Green Mix (PCR Biosystems).
A major limitation of KD and KO studies is the prolonged deficiency of the target protein. Small molecule inhibitors on the other hand, inactivate their target shortly following their application. […] Reads were aligned to the human genome and normalized expression of each gene was determined. Subsequently, the following ratios were calculated: TNFα vs. control, which describes the response to TNFα; SPI-21 vs. control, which describes the effect of SPI-21 on gene expression under basal conditions; and SPI-21+TNFα vs. TNFα, which describes the effect of SPI-21 under TNFα-induced conditions. […] To test this possibility, cells were treated with SPI-21 for 2 and 24 hours and the levels of the heat shock genes HSPA6 and HSPA1A were determined by RT-qPCR. […] To further test the idea of kinetically distinct Spt5 target genes, the global effect of long-term SPI-21 treatment (24 hours) was determined by RNA-seq and the affected genes between the short and long-term treatments were compared. […]

GDF15 = GDF15 mRNA levels, HeLa, qPCR; type: cell-based, human
Method: as §1
GDF15 is a member of the TGF-β superfamily and is associated with regulation of body-weight and food intake in humans and rodents (Emmerson et al., 2017; Hsu et al., 2017; Mullican et al., 2017; Tsai et al., 2018; Yang et al., 2017). […] To test this possibility, GDF15 expression was analyzed following 2 and 24 hours treatment with SPI-21. […] The dramatic elevation of GDF15 was also seen by other identified SPIs (FIG. 4G) and was not limited to HeLa cells but was also detected in other human and mouse cell lines (FIG. 4H). Thus, the utilization of SPIs enables distinguishing between temporary and constitutive Spt5-regulated genes and unveiled a previously unknown but significant role of Spt5 in the control of an important mammalian metabolic pathway via GDF15.

COc1ccc(C=CC(=O)c2cc(O)ccc2O)cc1 [SPI-21]
levels of newly synthesized Q111 Htt (mutant (Q111) Htt): diminished
levels of heat shock genes HSPA6 and HSPA1A (HSPA6 and HSPA1A; 2 hours treatment): strongly up-regulated
extent of activation of HSPA6 and HSPA1A (HSPA6 and HSPA1A; 24 hours treatment): substantially smaller
GDF15 up-regulation (GDF15; 2 hours treatment): moderately up-regulated
GDF15 up-regulation (GDF15; 24 hours treatment): about 100 fold
